Reference: publication PMC11594329, “Development of LAT1-Selective Nuclear Medicine Therapeutics Using Astatine-211” (International Journal of Molecular Sciences, 2024)

Key:
[1] = Urinary and fecal excretion in PANC-1 tumor bearing mice; type: in vivo
Experimental: Urinary excretion levels were also examined (Supplementary Table S1). Comparing the D-isomer and L isomer of ^211At-AAMT-O-Me from ICR mice, the D-isomer; 24.84 ± 13.03% ID, L-isomer; 33.69 ± 1.26% ID at 1 h after injection. D-isomer; 71.36 ± 4.67% ID, L-isomer; 23.99 ± 2.40% ID at 3 h after injection. From PANC-1 tumor bearing mice, D-isomer; 35.24 ± 8.70% ID, L-isomer; 20.40 ± 0.76% ID at 1 h after injection. D-isomer; 47.38 ± 3.19% ID, L-isomer; 3.23 ± 0.67% ID at 3 h after injection. In tumor-bearing models, the amount of excretion was smaller than that in normal mice. We have already reported that, in the presence of target cancer tissue for administered drugs, retention in the cancer tissue results in reduced excretion compared with normal animals. […] The same was also observed for feces, but very little was excreted in the feces. The results were as follows: from ICR mice, D-isomer; 0.06 ± 0.03% ID, L-isomer; 0.004 ± 0.003% ID at 1 h after injection. D-isomer; 0.02 ± 0.01% ID, L-isomer; 0.02 ± 0.01% ID at 3 h after injection. From PANC-1 tumor bearing mice, D-isomer; 0.25 ± 0.12% ID, L-isomer; 0.002 ± 0.001% ID at 1 h after injection. D-isomer; 0.75 ± 0.46% ID; L-isomer; 0.07 ± 0.03% ID at 3 h after injection.
BALB/c nu/nu mice (male, 5 weeks old) were purchased from Japan SLC (Shizuoka, Japan) and subcutaneously transplanted at a density of 1 × 10^7 cells/mouse. PANC-1 cells that reached the logarithmic growth phase were transplanted subcutaneously by mixing a 1 × 10^8 cells/mL cell suspension with an equivalent volume of Matrigel (Corning, Corning, NY, USA) to obtain 1 × 10^7 cells per mouse. Experiments were performed after the size of the transplanted tumor had exceeded 50 mm^3. The doses in the distribution experiments were as follows: ^211At-AAMT-OH-L (0.501 ± 0.011 MBq/mouse, 19.91 ± 0.59 g, n = 3) and ^211At-AAMT-O-Me-L (0.384 ± 0.003 MBq/mouse, 19.18 ± 0.38 g, n = 6 for Table 3), ^211At-AAMT-O-Me-L (158.10 ± 2.94 kBq/mouse, 19.27 ± 0.64 g, n = 6) and ^211At-AAMT-O-Me-D (135.08 ± 2.35 kBq/mouse, 18.64 ± 0.97 g, n = 6), ^211At-AAMT-O-Et-L (0.682 ± 0.011 MBq/mouse, 20.25 ± 1.41 g, n = 6), ^211At-AAMT-O-Pr-L (0.927 ± 0.020 MBq/mouse, 21.74 ± 0.37 g, n = 6).

LAT1-Tet/HEK293 cells = assay: Uptake versus LAT1 expression level (Dox-induced) in LAT1-Tet/HEK293 cells; type: cell-based; settings: collection 30 min after treatment
Experimental: Each cell line was seeded in 24 wells at 1 × 10^5 cells/mL and allowed to become sub-confluent on the day of the experiment. Cells were washed with PBS (-) (Fujifilm Wako Pure Chemical, Osaka, Japan) prior to the addition of the compound, which was then replaced with uptake buffer. After treating the cells with the same dose, they were collected at predetermined time points. The cell dose was measured using a γ-counter (Wizard^2 2480; PerkinElmer, Waltham, MA, USA), and the protein content of the sample was determined. Protein content was measured using the BCA method, and the dose was corrected using the protein content (Protein Assay BCA kit, Fujifilm Wako Pure Chemical).
Figure 2 Comparison of uptake between the labeled compounds. (A) Relation between uptake ratio and LAT1 expression level. Uptake ratios were compared between LAT1-Tet/HEK293 cells. The Y-axis represents the uptake ratio, and the X-axis is concentration of Doxycycline (Dox) (TaKaRa Bio, Shiga, Japan). The collection time was 30 min after treatment. The expression of LAT1 increased with increasing amounts of Dox. (B) Comparison of uptake in PANC-1 cell line. The collection times were 0.5, 1, 5 and 10 min after treatment.
The PANC-1 cell line was obtained from the RIKEN Cell Bank and maintained in RPMI 1640 medium (Fujifilm Wako Pure Chemical, Osaka, Japan) supplemented with 10% inactivated fetal bovine serum (Thermo Fisher Scientific, Waltham, MA, USA). Mock/HEK293, LAT1/HEK293, and LAT2/HEK203 cells were kindly provided by Dr. Kanai. Cell lines controlling LAT1 expression were constructed using the Tet-on system. HEK293 cells were obtained from the RIKEN Cell Bank and maintained in E-MEM (Fujifilm Wako Pure Chemical) supplemented with 10% inactivated fetal bovine serum (Thermo Fisher Scientific) and non-essential amino acids (Fujifilm Wako Pure Chemical). The expression vectors were purchased from VectorBuilder, Inc. (Kanagawa, Japan). The purified viral particle genes were transfected into HEK293 cells. Drug selection and cloning of the cell line (Tet-LAT1/HEK293) were performed. […]

COc1ccc(C[C@](C)(N)C(=O)O)cc1[211At] [^211At-AAMT-O-Me-L, (S)-2-amino-3-(3-(astato-^211At)-4-methoxyphenyl)-2-methylpropanic acid]
Excretion in feces ([1]; 1 h after injection): 0.002 ± 0.001 % ID | Urinary excretion ([1]; 1 h after injection): 20.40 ± 0.76 % ID | Excretion in feces ([1]; 3 h after injection): 0.07 ± 0.03 % ID | Urinary excretion ([1]; 3 h after injection): 3.23 ± 0.67 % ID | Uptake ratio versus LAT1 expression (doxycycline concentration) (LAT1-Tet/HEK293 cells): highest increase in uptake

COc1ccc(C[C@@](C)(N)C(=O)O)cc1[211At] [^211At-AAMT-O-Me-D]
Excretion in feces ([1]; 1 h after injection): 0.25 ± 0.12 % ID | Urinary excretion ([1]; 1 h after injection): 35.24 ± 8.70 % ID | Excretion in feces ([1]; 3 h after injection): 0.75 ± 0.46 % ID | Urinary excretion ([1]; 3 h after injection): 47.38 ± 3.19 % ID
